{"source": "patent US12226443B2", "about": "“Polyphenol composition and method of its use and manufacture in the treatment of metabolic disorders” (Vidya Herbs, Inc., priority 2018, dated 2025)", "test": "DPPH scavenging assay", "details": "composition at 100 μg/ml", "protocol": "The free radical scavenging capacity of the composition was determined using DPPH scavenging assay (Braca et al. 2001). DPPH solution was prepared in 95% methanol. Freshly prepared DPPH solution was taken in test tubes and different concentration of the composition (20-100 μg/mL) were added and incubated for 20 min. The absorbance was read at 517 nm using a spectrophotometer. Blank was prepared containing the same volume of reaction mixture without any test samples. The percentage of scavenging was calculated using formula: % Scavenging=Ac−As/Ac×100 Where AC was the absorbance of the control (blank without extract) and As was the absorbance in the presence of the extract.", "data": [{"smiles": "O=C1O[C@H]([C@@H](O)CO)C(O)=C1O", "note": "[ascorbic acid]", "values": [{"measurement": "DPPH radical scavenging, maximum activity", "value": 96.71, "unit": "%"}]}]}
